These results are taken from patent US20150191469A1, “COMPOUNDS AND METHODS FOR TREATING HIV” (priority 2012, published 2015).

The first assay deals with HIV. Briefly: MT4 assay: antiviral HIV activity (cell protection, cell titer glo readout at 96 hours). Format: cell-based. The following applies: Human immunodeficiency virus 1, MT4, 96 h, MT4 cells, cell titer glo readout at 96 hours, 10 point dose response; read-out: HIV MT4 Assay IC50. A digest of the protocol:
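MT-4 cells infected with HIV, with inhibition readout by CellTiter-Glo luminescence at 96 h relative to no-compound control. Cytotoxicity measured in parallel under the same conditions. IC50 from a 10-point, 3-4-fold dilution series spanning >1000-fold, fitted with a four-parameter logistic equation.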
For orientation: Cellular ATP, detected with luciferase, serves as a proxy for viable cell number.
In general, IC50 refers to the midpoint of a concentration-inhibition curve. Regarding `Cc1nc2c(cc(-c3nsc(N4CCNCC4)n3)n2C)c(-c2cc(F)c3c(c2C)CCCO3)c1[C@H](OC(C)(C)C)C(=O)O` [Example 367], the IC50 is 17.5 nM.

Regarding `Cc1nc2c(cc(-c3nc(N4CCCCC4)ns3)n2C)c(-c2cc(F)c3c(c2C)CCCO3)c1[C@H](OC(C)(C)C)C(=O)O` [Example 368], the IC50 is 39.5 nM.

Regarding `Cc1nc2c(cc(-c3nc(N4CCN(C)CC4)ns3)n2C)c(-c2cc(F)c3c(c2C)CCCO3)c1[C@H](OC(C)(C)C)C(=O)O` [Example 369], the IC50 came to 11.3 nM.

For the molecule `Cc1nc2c(cc(-c3nsc(N4CCCCC4)n3)n2C)c(-c2cc(F)c3c(c2C)CCCO3)c1[C@H](OC(C)(C)C)C(=O)O` [Example 370], the IC50 stood at 9.5 nM.

For `Cc1nc2c(cc(-c3nsc(N4CCN(C)CC4)n3)n2C)c(-c2cc(F)c3c(c2C)CCCO3)c1[C@H](OC(C)(C)C)C(=O)O` [Example 371], the IC50 was 8.4 nM.

Regarding `Cc1nc2c(cc(-c3nc(N4CCC(C)CC4)ns3)n2C)c(-c2cc(F)c3c(c2C)CCCO3)c1[C@H](OC(C)(C)C)C(=O)O` [Example 372], the IC50 was 36.2 nM.

Regarding `Cc1nc2c(cc(-c3nsc(N4CCN(C5CC5)CC4)n3)n2C)c(-c2cc(F)c3c(c2C)CCCO3)c1[C@H](OC(C)(C)C)C(=O)O` [Example 373], the IC50 was 5.2 nM.

`Cc1nc2c(cc(-c3nsc(N4CCC(C)CC4)n3)n2C)c(-c2cc(F)c3c(c2C)CCCO3)c1[C@H](OC(C)(C)C)C(=O)O` [Example 374]: the IC50 is 10.8 nM.

Turning to `Cc1nc2c(cc(-c3nsc(N4CCN(C5CCOCC5)CC4)n3)n2C)c(-c2cc(F)c3c(c2C)CCCO3)c1[C@H](OC(C)(C)C)C(=O)O` [Example 375], the IC50 was 1.5 nM.

For `Cc1nc2c(cc(-c3nnc(N4CCN(C5CCOCC5)CC4)s3)n2C)c(-c2cc(F)c3c(c2C)CCCO3)c1[C@H](OC(C)(C)C)C(=O)O` [Example 376], the IC50 amounted to 14.4 nM.

As to `Cc1nc2c(cc(-c3nc(N4CCC5(CC4)OCCO5)ns3)n2C)c(-c2cc(F)c3c(c2C)CCCO3)c1[C@H](OC(C)(C)C)C(=O)O` [Example 377], the concentration for half-maximal inhibition (IC50) amounted to 5.9 nM.

Consider `Cc1nc2c(cc(-c3nc(N4CCN(C5CCOCC5)C[C@H]4C)ns3)n2C)c(-c2cc(F)c3c(c2C)CCCO3)c1[C@H](OC(C)(C)C)C(=O)O` [Example 378], for which the IC50 was 4.1 nM.

On to `Cc1nc2c(cc(-c3nc(N4CCC(N5CCOCC5)CC4)ns3)n2C)c(-c2cc(F)c3c(c2C)CCCO3)c1[C@H](OC(C)(C)C)C(=O)O` [Example 380], for which the IC50 came out at 1.6 nM.

Regarding `Cc1nc2c(cc(-c3nc(N4CCN5CCC[C@@H]5C4)ns3)n2C)c(-c2cc(F)c3c(c2C)CCCO3)c1[C@H](OC(C)(C)C)C(=O)O` [Example 381], the IC50 is 2.7 nM.

As for `Cc1nc2c(cc(-c3nc(N4CCN5CCC[C@H]5C4)ns3)n2C)c(-c2cc(F)c3c(c2C)CCCO3)c1[C@H](OC(C)(C)C)C(=O)O` [Example 383], the IC50 was found to be 4.1 nM.

Consider `Cc1nc2c(cc(-c3nc(N4CCN(C(=O)N5CCCCC5)CC4)ns3)n2C)c(-c2cc(F)c3c(c2C)CCCO3)c1[C@H](OC(C)(C)C)C(=O)O` [Example 384], for which the IC50 worked out at 5.1 nM.

On to `Cc1nc2c(cc(-c3nc(N4CCN(C5CC5)CC4)ns3)n2C)c(-c2cc(F)c3c(c2C)CCCO3)c1[C@H](OC(C)(C)C)C(=O)O` [Example 385], for which the half-maximal inhibitory concentration (IC50) was 10 nM.

As to `Cc1nc2c(cc(-c3nc(N4CCN(CC5CC5)CC4)ns3)n2C)c(-c2cc(F)c3c(c2C)CCCO3)c1[C@H](OC(C)(C)C)C(=O)O` [Example 386], the IC50 stood at 5.9 nM.

Take `Cc1nc2c(cc(-c3nc(N4CCC(N5CCCCC5)CC4)ns3)n2C)c(-c2cc(F)c3c(c2C)CCCO3)c1[C@H](OC(C)(C)C)C(=O)O` [Example 387]: the IC50 is 6.9 nM.

With `Cc1nc2c(cc(-c3nc(N4CCN(C(=O)N5CCOCC5)CC4)ns3)n2C)c(-c2cc(F)c3c(c2C)CCCO3)c1[C@H](OC(C)(C)C)C(=O)O` [Example 388], the IC50 was determined as 9.3 nM.

For the molecule `Cc1nc2c(cc(-c3nc(N4CCC(N5CCN(C)CC5)CC4)ns3)n2C)c(-c2cc(F)c3c(c2C)CCCO3)c1[C@H](OC(C)(C)C)C(=O)O` [Example 389], the IC50 came out at 5.6 nM.

Turning to `Cc1nc2c(cc(-c3nc(N4CCN(CC5CCOCC5)CC4)ns3)n2C)c(-c2cc(F)c3c(c2C)CCCO3)c1[C@H](OC(C)(C)C)C(=O)O` [Example 390], the IC50 came out at 5.4 nM.

As for `Cc1nc2c(cc(-c3nc(N4CCN(C(=O)C5CCOCC5)CC4)ns3)n2C)c(-c2cc(F)c3c(c2C)CCCO3)c1[C@H](OC(C)(C)C)C(=O)O` [Example 391], the IC50 is 14.2 nM.

For the molecule `Cc1nc2c(cc(-c3nc(N4CCN(S(=O)(=O)N5CCOCC5)CC4)ns3)n2C)c(-c2cc(F)c3c(c2C)CCCO3)c1[C@H](OC(C)(C)C)C(=O)O` [Example 392], the IC50 worked out at 4.9 nM.

As to `Cc1nc2c(cc(-c3nc(N4CCN(S(=O)(=O)C5CCOCC5)CC4)ns3)n2C)c(-c2cc(F)c3c(c2C)CCCO3)c1[C@H](OC(C)(C)C)C(=O)O` [Example 393], the IC50 came to 4.2 nM.

Turning to `Cc1nc2c(cc(-c3nc(N4CCN(S(=O)(=O)N5CCCCC5)CC4)ns3)n2C)c(-c2cc(F)c3c(c2C)CCCO3)c1[C@H](OC(C)(C)C)C(=O)O` [Example 394], the IC50 was 16.4 nM.

`COC1CCN(c2nsc(-c3cc4c(-c5cc(F)c6c(c5C)CCCO6)c([C@H](OC(C)(C)C)C(=O)O)c(C)nc4n3C)n2)CC1` [Example 395]: the IC50 stood at 13.1 nM.

For the molecule `Cc1nc2c(cc(-c3nc(N4CCC(N(C)C)CC4)ns3)n2C)c(-c2cc(F)c3c(c2C)CCCO3)c1[C@H](OC(C)(C)C)C(=O)O` [Example 396], the IC50 came to 15.5 nM.

For `Cc1nc2c(cc(-c3nc(N4CCCN(C)CC4)ns3)n2C)c(-c2cc(F)c3c(c2C)CCCO3)c1[C@H](OC(C)(C)C)C(=O)O` [Example 398], the IC50 stood at 13.6 nM.

In the case of `Cc1nc2c(cc(-c3nc(N4CCC(F)CC4)ns3)n2C)c(-c2cc(F)c3c(c2C)CCCO3)c1[C@H](OC(C)(C)C)C(=O)O` [Example 399], the IC50 turned out to be 28.7 nM.

`Cc1nc2c(cc(-c3nc(N4CCN(C(C)C)CC4)ns3)n2C)c(-c2cc(F)c3c(c2C)CCCO3)c1[C@H](OC(C)(C)C)C(=O)O` [Example 400]: the IC50 amounted to 6.3 nM.

As for `Cc1nc2c(cc(-c3nc(N4CC[C@@H](N(C)C)C4)ns3)n2C)c(-c2cc(F)c3c(c2C)CCCO3)c1[C@H](OC(C)(C)C)C(=O)O` [Example 401], the IC50 is 12.8 nM.

For `Cc1nc2c(cc(-c3nc(N4CCC(N5CCCC5)CC4)ns3)n2C)c(-c2cc(F)c3c(c2C)CCCO3)c1[C@H](OC(C)(C)C)C(=O)O` [Example 402], the IC50 was found to be 15 nM.

On to `Cc1nc2c(cc(-c3nc(N4CCC4)ns3)n2C)c(-c2cc(F)c3c(c2C)CCCO3)c1[C@H](OC(C)(C)C)C(=O)O` [Example 403], for which the IC50 came out at 12.9 nM.

Take `COC[C@@H]1CCCN1c1nsc(-c2cc3c(-c4cc(F)c5c(c4C)CCCO5)c([C@H](OC(C)(C)C)C(=O)O)c(C)nc3n2C)n1` [Example 404]: the IC50 was 12.8 nM.

For the molecule `Cc1nc2c(cc(-c3nc(N4CCN(CCN5CCOCC5)CC4)ns3)n2C)c(-c2cc(F)c3c(c2C)CCCO3)c1[C@H](OC(C)(C)C)C(=O)O` [Example 405], the IC50 turned out to be 2.7 nM.

On to `Cc1nc2c(cc(-c3nc(NCCS(C)(=O)=O)ns3)n2C)c(-c2cc(F)c3c(c2C)CCCO3)c1[C@H](OC(C)(C)C)C(=O)O` [Example 406], for which the IC50 stood at 39.2 nM.

Consider `Cc1nc2c(cc(-c3nc(NC4CCOCC4)ns3)n2C)c(-c2cc(F)c3c(c2C)CCCO3)c1[C@H](OC(C)(C)C)C(=O)O` [Example 407], for which the IC50 was 25.4 nM.

Turning to `Cc1nc2c(cc(-c3csc(N4CCN(C5CCOCC5)CC4)n3)n2C)c(-c2cc(F)c3c(c2C)CCCO3)c1[C@H](OC(C)(C)C)C(=O)O` [Example 408], the IC50 stood at 2.7 nM.

Consider `Cc1nc2c(cc(/C=C/C(=O)NCC3CCCCC3)n2C)c(-c2cc(F)c3c(c2C)CCCO3)c1[C@H](OC(C)(C)C)C(=O)O` [Example 414], for which the IC50 was 17 nM.

With `Cc1nc2c(cc(/C=C/C(=O)NCC3CC3)n2C)c(-c2cc(F)c3c(c2C)CCCO3)c1[C@H](OC(C)(C)C)C(=O)O` [Example 415], the IC50 came to 40.1 nM.

With `Cc1nc2c(cc(/C=C/C(=O)NCCC(C)(C)C)n2C)c(-c2cc(F)c3c(c2C)CCCO3)c1[C@H](OC(C)(C)C)C(=O)O` [Example 416], the IC50 came to 26.7 nM.

Consider `Cc1nc2c(cc(/C=C/C(=O)NCc3ccc(F)cc3)n2C)c(-c2cc(F)c3c(c2C)CCCO3)c1[C@H](OC(C)(C)C)C(=O)O` [Example 417], for which the IC50 amounted to 33.7 nM.

For `Cc1nc2c(cc(/C=C/C(=O)NCCO)n2C)c(-c2cc(F)c3c(c2C)CCCO3)c1[C@H](OC(C)(C)C)C(=O)O` [Example 418], the IC50 was 3440 nM.

Regarding `Cc1nc2c(cc(/C=C/C(=O)NCCN3CCCC3=O)n2C)c(-c2cc(F)c3c(c2C)CCCO3)c1[C@H](OC(C)(C)C)C(=O)O` [Example 419], the IC50 turned out to be 3240 nM.

Take `Cc1ccc(-c2c([C@H](OC(C)(C)C)C(=O)O)c(C)nc3c2cc(-c2ccnc(-c4ccc5c(cnn5C)c4)c2)n3C)cc1` [Example 421]: the IC50 was found to be 7.6 nM.

`Cc1nc2c(cc(-c3ccnc(-c4ccc5c(cnn5C)c4)c3)n2C)c(-c2ccc3c(c2Cl)NCCO3)c1[C@H](OC(C)(C)C)C(=O)O` [Example 422]: the IC50 stood at 1.5 nM.

Turning to `Cc1nc2c(cc(-c3ccnc(-c4ccc5c(cnn5C)c4)c3)n2C)c(-c2ccc3c(c2C)NCCO3)c1[C@H](OC(C)(C)C)C(=O)O` [Example 423], the IC50 amounted to 1.8 nM.

With `Cc1nc2c(cc(-c3ccnc(-c4ccc5c(cnn5C)c4)c3)n2C)c(-c2ccccc2)c1[C@H](OC(C)(C)C)C(=O)O` [Example 424], the IC50 was 46.4 nM.

For the molecule `Cc1nc2c(cc(-c3ccnc(-c4ccc5c(cnn5C)c4)c3)n2C)c(C2=CCCCC2)c1[C@H](OC(C)(C)C)C(=O)O` [Example 425], the IC50 came out at 34.5 nM.

The same assay, now with this note: MT4 cells, cell titer glo readout at 96 hours, 10 point dose response; read-out: HIV MT4 Assay IC50.
For `Cc1nc2c(cc(-c3nc(N4CCN(C5CCOCC5)CC4)ns3)n2C)c(-c2cc(F)c3c(c2C)CCCO3)c1[C@H](OC(C)(C)C)C(=O)O` [Example 379], the IC50 was determined as 208 nM.
